Experimental data from patent US10537725B2, “Ultrasound-assisted convection enhanced delivery of compounds in vivo with a transducer cannula assembly” (CORNELL UNIVERSITY, priority 2010, dated 2020).

Experiment: Evans blue dye volume distribution in rat brain after CED or ultrasound-assisted CED (UCED) infusion into the caudate
Assay type: in vivo, Sprague-Dawley rats
Conditions: for total distribution volume of EBD: 30 min
Procedure: A total of 40 Sprague-Dawley rats (350 to 450 g) were divided into two equal groups and further divided into four equal subgroups (n=5 in each). The rats were anesthetized, secured into ear bars on a stereotaxic apparatus, and a craniotomy was performed. The caudate of the rat brain was infused with 0.25 wt % Evans blue dye (EBD) in Phosphate-Buffered Saline (PBS) at two different infusion rates of 0.25 μL/min for group 1, and 0.5 μL/min for group 2. […] Using the TCA without ultrasound, the four control subgroups were infused without and with microbubbles (CED and CED+MB). The four UCED subgroups (UCED and UCED+MB) followed the same protocol with the addition of simultaneous continuous wave 1.34 MHz ultrasound operating at a total acoustic power of 0.11+/−0.005 W and peak spatial intensity at the cannula tip of I=49.7 mW/cm^2. Frozen sectioning and histology were performed on the brains, and infusion distribution was three-dimensionally reconstructed using MatLab® analysis. Hematoxylin and Eosin (H&E) staining was used to assess tissue damage and morphological changes to the brain. The application of UCED and UCED+MB improved EBD total volumetric distribution by 2.24 to 3.25 and 1.16 to 1.70 times, respectively (p<0.001). On gross and histological examination, no ultrasound or microbubble related damage to the brain tissue was found. The TCA and battery-powered ultrasound device show promise to improve the distribution of infusate during CED in clinical practice.
Rats were anesthetized and euthanized by procedures approved by the Institutional Animal Care and Use Committee (IACUC) at Cornell University. A total of 40 Sprague-Dawley rats (350 to 450 g) were divided into two groups (designated Groups 1 and 2) with four subgroups (5 rats in each subgroup). Animals were anesthetized by inhalation of isoflurane gas and secured in a stereotaxic frame. The head was shaved, 0.5 ml of bupivicaine was applied under the skin as a local anesthetic and an incision was made in the skin along the dorsal midline of the skull. A small craniotomy (6-7 mm diameter) was made over the left side of the exposed skull using a dental drill. The TCA was guided using a micromanipulator to +0 mm anterior, +3 mm lateral and −5.5 mm ventral from bregma, lowered at 0.25 mm per second into the caudate of the rat brain and allowed to equilibrate for two minutes. 1-2 ml of artificial cerebral spinal fluid (aCSF) and a gel-foam dam was used to couple acoustic energy from the face of the TCA into the rodent brain. The TCA was powered on with the pocket-sized ultrasound system at the +/−11.1 V setting and infusion began.
For each rat, the entire experiment lasted a total of 30 min. The control subgroups of CED and CED+MB (n=5 in each) were infused using the TCA with no ultrasound therapy for 30 min. For the experimental subgroups of UCED and UCED+MB (n=5 in each), infusion and ultrasound exposure at an acoustic power of 0.11+/−0.005 W, and TCA face intensity of 0.095 W/cm^2 which corresponded to a cannula tip intensity of 0.0497 W/cm^2 for 30 min was applied simultaneously. Filtered Evan's blue dye (EBD) 0.25 wt % in phosphate buffered saline (PBS) without or with 5×10^5 stabilized microbubbles per μL with median diameter of 2.5 μm (Targestar™-P, Targeson Inc.) was infused using a microinfusion pump (Worker Bee™, Bioanalytical Systems, Inc.).
The starting infusion flow rate for the experiments of Group 1 was 0.05 μL/min for 5 min; the infusion flow rate was then increased to 0.1 μL/min for an additional 5 min, to a final flow rate of 0.25 μL/min for 20 min. The starting infusion flow rate of Group 2 was 0.1 μL/min for 5 min; the infusion flow rate was then increased to 0.25 μL/min for an additional 5 min, to a final flow rate of 0.5 μL/min for 20 min.
After 30 min of simultaneous infusion and ultrasound therapy the experiment was stopped. The TCA was left in the tissue for 1-2 min before being removed while euthanasia via cardiac urethane injection was performed. […]

Compound: Cc1cc(-c2ccc(/N=N/c3ccc4c(S(=O)(=O)O)cc(S(=O)(=O)O)c(N)c4c3O)c(C)c2)ccc1/N=N/c1ccc2c(S(=O)(=O)O)cc(S(=O)(=O)O)c(N)c2c1O [EBD, Evans blue dye]
- total distribution volume of EBD (group 1, 0.25 μL/min infusion, left caudate, CED): 13.6 mm^3
- total distribution volume of EBD (group 1, 0.25 μL/min infusion, left caudate, CED+MB): 15.9 mm^3
- total distribution volume of EBD (group 1, 0.25 μL/min infusion, left caudate, UCED): 33.1 mm^3
- total distribution volume of EBD (group 1, 0.25 μL/min infusion, left caudate, UCED+MB): 27.0 mm^3
- total distribution volume of EBD (group 1, 0.25 μL/min infusion, left hemisphere, CED (no ultrasound)): 20.6 mm^3
- total distribution volume of EBD (group 1, 0.25 μL/min infusion, left hemisphere, CED+MB (microbubbles, no ultrasound)): 19.7 mm^3
- total distribution volume of EBD (group 1, 0.25 μL/min infusion, left hemisphere, UCED (1.34 MHz ultrasound)): 46.3 mm^3
- total distribution volume of EBD (group 1, 0.25 μL/min infusion, left hemisphere, UCED+MB): 26.9 mm^3
- increase of EBD distribution volume (group 1, 0.25 μL/min, left caudate, UCED compared to CED): 2.44 ×
- increase of EBD distribution volume (group 1, 0.25 μL/min, left caudate, UCED+MB compared to CED+MB): 1.7 ×
- increase of EBD distribution volume (group 1, 0.25 μL/min, left hemisphere, UCED compared to CED): 2.24 ×
- increase of EBD distribution volume (group 1, 0.25 μL/min, left hemisphere, UCED+MB compared to CED+MB): 1.37 ×
- total distribution volume of EBD (group 2, 0.5 μL/min infusion, left caudate, UCED): 70.2 mm^3
- total distribution volume of EBD (group 2, 0.5 μL/min infusion, left caudate, UCED+MB): 30.2 mm^3
- total distribution volume of EBD (group 2, 0.5 μL/min infusion, left hemisphere, CED): 37.4 mm^3
- total distribution volume of EBD (group 2, 0.5 μL/min infusion, left hemisphere, CED+MB): 31.9 mm^3
- total distribution volume of EBD (group 2, 0.5 μL/min infusion, left hemisphere, UCED): 111 mm^3
- total distribution volume of EBD (group 2, 0.5 μL/min infusion, left hemisphere, UCED+MB): 37.1 mm^3
- increase of EBD distribution volume (group 2, 0.5 μL/min, left caudate, UCED compared to CED): 3.25 ×
- increase of EBD distribution volume (group 2, 0.5 μL/min, left caudate, UCED+MB compared to CED+MB): 1.54 ×
- increase of EBD distribution volume (group 2, 0.5 μL/min, left hemisphere, UCED compared to CED): 2.96 ×
- increase of EBD distribution volume (group 2, 0.5 μL/min, left hemisphere, UCED+MB compared to CED+MB): 1.16 ×
